Results reported in patent publication US12122778B2, “Activating pyruvate kinase R” (Novo Nordisk Health Care AG, priority 2018, dated 2024).

Tests used:
PKR(G332S) = PKR(G332S) (Homo sapiens, UniProt P30613, G332S); experiment: Luminescence Biochemical Assay (Kinase Glo Plus), PKR G332S mutant; settings: with FBP; for activation at 1.54 µM: 1.54 μM compound, read-out: AC50 LUM KGP FBP % Fold@1.54 μM mean; for AC50: read-out: AC50 LUM KGP FBP AC50 μM gmean (column A); for Emax: read-out: AC50 LUM KGP FBP MAX % FOLD mean
Chain of PKR(G332S) (P30613 whole entry G332S): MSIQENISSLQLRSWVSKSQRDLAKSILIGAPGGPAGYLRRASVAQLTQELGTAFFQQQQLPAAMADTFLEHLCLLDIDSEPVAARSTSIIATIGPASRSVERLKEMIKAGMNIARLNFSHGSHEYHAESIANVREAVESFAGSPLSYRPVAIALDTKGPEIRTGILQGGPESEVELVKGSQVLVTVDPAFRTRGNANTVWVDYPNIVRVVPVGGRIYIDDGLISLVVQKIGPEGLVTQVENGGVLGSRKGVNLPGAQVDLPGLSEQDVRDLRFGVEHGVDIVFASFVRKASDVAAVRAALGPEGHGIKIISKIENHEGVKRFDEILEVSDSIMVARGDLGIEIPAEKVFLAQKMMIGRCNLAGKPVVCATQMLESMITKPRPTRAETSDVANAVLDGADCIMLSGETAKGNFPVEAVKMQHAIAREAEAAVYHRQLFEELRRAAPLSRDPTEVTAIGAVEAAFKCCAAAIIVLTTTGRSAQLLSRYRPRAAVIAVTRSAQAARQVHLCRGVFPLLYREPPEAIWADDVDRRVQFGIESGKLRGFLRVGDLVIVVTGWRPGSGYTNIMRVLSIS
Experimental: In some embodiments, a PKR Activating Compound can have: (1) an AC50 value of less than 0.1 μM (e.g., compounds with AC50 values of “+++” in Table 13), 0.1-1.0 μM (e.g., compounds with AC50 values of “++” in Table 13), or 1.01-40 μM (e.g., compounds with AC50 values of “+” in Table 13); (2) a MAX % Fold of 75%-250%, 250-500%, or 75%-500%; and/or (3) a % Fold@1.54 μM of 75%-250%, 250-500%, or 75%-500%. In some embodiments, a PKR Activating Compound has (1) an AC50 value of less than 1.0 μM; (2) a MAX % Fold of 75%-500%; and/or (3) a % Fold@1.54 μM of 75%-500%.
The phosphorylation of Adenosine-5′-diphosphate (ADP) by various mutants of PKR was determined by the Kinase Glo Plus Assay (Promega) in the presence or absence of FBP [D-Fructose-1,6-diphosphate; BOC Sciences, CAS: 81028-91-3] as follows. Unless otherwise indicated, all reagents were purchased from Sigma-Aldrich. All reagents were prepared in buffer containing 50 mM Tris-HCl, 100 mM KCl, 5 mM MgCl2, and 0.01% Triton X100, 0.03% BSA, and 1 mM DTT. Enzyme and PEP [Phospho(enol) pyruvic acid] were added at 2× to all wells of an assay-ready plate containing serial dilutions of test compounds or DMSO vehicle. Final enzyme concentrations for PKR(wt), PKR(R510Q), and PKR(G332S) were 0.8 nM, 0.8 nM, and 10 nM respectively. Final PEP concentration was 100 μM. The Enzyme/PEP mixture was incubated with compounds for 30 minutes at RT before the assay was initiated with the addition of 2×ADP [Adenosine-5′-diphosphate] and KinaseGloPlus. Final concentration of ADP was 100 μM. […] For assays containing FBP, that reagent is added at 30 μM upon reaction initiation. Reactions were allowed to progress for 45 minutes at RT until luminescence was recorded by the BMG PHERAstar FS Multilabel Reader. All compounds were tested in triplicate at concentrations ranging from 42.5 μM to 2.2 nM in 0.83% DMSO.
Luminescence values were converted to % Fold increase by normalizing to the average of the DMSO control and multiplying by 100. Max, min, slope and AC50 were determined by the standard four parameter fit algorithm of ActivityBase XE Runner. Compounds were evaluated with three parameters—AC50, MAX % Fold, and % Fold@1.54 μM (FIG. 1). The AC50 value for a compound is the concentration (μM) corresponding to the midway between the maximum and minimum values of the four parameter logistic curve fit (i.e., at which the % fold increase along the four parameter logistic curve fit is halfway between MAX % Fold and MIN % Fold (% Fold Midpoint)), MAX % Fold is the highest fold increase observed at any concentration of compound, and % Fold@1.54 μM is the fold increase at a compound concentration of 1.54 μM. The parameter % Fold@1.54 μM was selected to capture elements of both the AC50 and MAX % Fold and to provide a ranking based on both potency and effect. The compound concentration of 1.54 μM was chosen as one that can optimally differentiate the set of compounds based on the range of activities observed.
As set forth in Table 13 below, AC50 values (columns A, D, G) are defined as follows: ≤0.1 μM (+++); >0.1 μM and ≤1.0 μM (++); >1.0 μM and ≤40 μM (+); >40 μM (0). Max % FOLD values (columns B, E, H) are defined as follows: ≤75% (+); >75% and ≤250% (++); >250% and ≤500% (+++). % Fold@1.54 μM values (columns C, F, J) are defined as follows: ≤75% (+); >75% and ≤250% (++); >250% and ≤50000 (+++).

PKR(wt) = PKR(wt) (Homo sapiens, UniProt P30613); experiment: Luminescence Biochemical Assay (Kinase Glo Plus), wild type PKR; settings: without FBP; for activation at 1.54 µM: 1.54 μM compound, read-out: AC50 LUM KGP woFBP % Fold@1.54 μM mean; for AC50: read-out: AC50 LUM KGP woFBP AC50 μM gmean; for Emax: read-out: AC50 LUM KGP woFBP MAX % FOLD mean
Chain of PKR(wt) (P30613 whole entry): as the sequence (P30613 whole entry G332S) above, with S332G counted along it

PKR(R510Q) = PKR(R510Q) (Homo sapiens, UniProt P30613, R510Q); experiment: Luminescence Biochemical Assay (Kinase Glo Plus), PKR R510Q mutant; settings: without FBP; for activation at 1.54 µM: 1.54 μM compound, read-out: AC50 LUM KGP woFBP % Fold@1.54 μM mean; for AC50: read-out: AC50 LUM KGP woFBP AC50 μM gmean; for Emax: read-out: AC50 LUM KGP woFBP MAX % FOLD mean
Chain of PKR(R510Q) (P30613 whole entry R510Q): as the sequence (P30613 whole entry G332S) above, with S332G, R510Q counted along it

Structure (SMILES)	activation at 1.54 µM (PKR(G332S)) [%]	AC50 (PKR(G332S)) [µM]	Emax (PKR(G332S)) [%]	activation at 1.54 µM (PKR(wt)) [%]	AC50 (PKR(wt)) [µM]	Emax (PKR(wt)) [%]	activation at 1.54 µM (PKR(R510Q)) [%]	AC50 (PKR(R510Q)) [µM]	Emax (PKR(R510Q)) [%]
COc1cc(Cl)ccc1S(=O)(=O)N1CC2=C(CN(C(=O)[C@H](O)c3ccccc3)C2)C1 [Example 18-58, (2R)-1-[5-(4-chloro-2-methoxybenzenesulfonyl)-1H,2H,3H,4H,5H,6H-pyrrolo[3,4-c]pyrrol-2-yl]-2-hydroxy-2-phenylethan-1-one]	75 to 250	1 to 40	75 to 250	75 to 250	1 to 40	75 to 250	75 to 250	1 to 40	75 to 250
O=C([C@H](O)c1ccccc1)N1CC2=C(C1)CN(S(=O)(=O)c1ccc(F)c(F)c1)C2 [Example 18-53, (2R)-1-[5-(3,4-difluorobenzenesulfonyl)-1H,2H,3H,4H,5H,6H-pyrrolo[3,4-c]pyrrol-2-yl]-2-hydroxy-2-phenylethan-1-one]	75 to 250	1 to 40	75 to 250	75 to 250	0.1 to 1	75 to 250	75 to 250	0.1 to 1	75 to 250
O=C(Cc1ccc[nH]1)N1CC2=C(C1)CN(S(=O)(=O)c1ccc(OC(F)F)cc1)C2 [Example 18-27, 1-{5-[4-(Difluoromethoxy)benzenesulfonyl]-1H,2H,3H,4H,5H,6H-pyrrolo[3,4-c]pyrrol-2-yl}-2-(1H-pyrrol-2-yl)ethan-1-one]	75 to 250	1 to 40	75 to 250	75 to 250	1 to 40	75 to 250	75 to 250	1 to 40	75 to 250
O=C(C(O)c1ccc(C(F)(F)F)cc1)N1CC2=C(C1)CN(S(=O)(=O)c1ccc(OC(F)F)cc1)C2 (stereo not drawn) [Example 18-32, 1-{5-[4-(Difluoromethoxy)benzenesulfonyl]-1H,2H,3H,4H,5H,6H-pyrrolo[3,4-c]pyrrol-2-yl}-2-hydroxy-2-[4-(trifluoromethyl)phenyl]ethan-1-one]	75 to 250	0.1 to 1	75 to 250	75 to 250	0.1 to 1	250 to 500	75 to 250	0.1 to 1	250 to 500
O=C(NCc1cnco1)N1CC2=C(C1)CN(S(=O)(=O)c1ccc(F)cc1)C2 [Example 5-1, 5-(4-Fluorophenylsulfonyl)-N-(oxazol-5-ylmethyl)-3,4,5,6-tetrahydropyrrolo[3,4-c]pyrrole-2(1H)-carboxamide]	75 to 250	0.1 to 1	75 to 250				75 to 250	1 to 40	75 to 250
COc1cccc(CNC(=O)N2CC3=C(C2)CN(S(=O)(=O)c2ccc4nsnc4c2)C3)c1 [Example 20-25, 5-(2,1,3-Benzothiadiazole-5-sulfonyl)-N-[(3-methoxyphenyl)methyl]-1H,2H,3H,4H,5H,6H-pyrrolo-[3,4-c]pyrrole-2-carboxamide]	75 to 250	0.1 to 1	75 to 250				75 to 250	1 to 40	75 to 250
COc1ccc(CNC(=O)N2CC3=C(C2)CN(S(=O)(=O)c2ccc(F)cc2)C3)cc1 [Example 20-3]	75 to 250	≤ 0.1	75 to 250				250 to 50000	0.1 to 1	250 to 500
O=C(NCc1ccc(F)cc1)N1CC2=C(C1)CN(S(=O)(=O)c1ccc3occc3c1)C2 [Example 20-23, 5-(1-Benzofuran-5-sulfonyl)-N-[(4-fluorophenyl)methyl]-1H,2H,3H,4H,5H,6H-pyrrolo[3,4-c]pyrrole-2-carboxamide]	75 to 250	1 to 40	75 to 250				75 to 250	0.1 to 1	250 to 500
COc1ccccc1CNC(=O)N1CC2=C(C1)CN(S(=O)(=O)c1ccc3nsnc3c1)C2 [Example 20-27, 5-(2,1,3-Benzothiadiazole-5-sulfonyl)-N-[(2-methoxyphenyl)methyl]-1H,2H,3H,4H,5H,6H-pyrrolo[3,4-c]pyrrole-2-carboxamide]	75 to 250	1 to 40	75 to 250				75 to 250	1 to 40	250 to 500
COc1ccc(CNC(=O)N2CC3=C(C2)CN(S(=O)(=O)c2cccc4cnccc24)C3)cc1 [Example 20-11, 5-(Isoquinoline-5-sulfonyl)-N-[(4-methoxyphenyl)methyl]-1H,2H,3H,4H,5H,6H-pyrrolo[3,4-c]pyrrole-2-carboxamide]	75 to 250	1 to 40	75 to 250				75 to 250	≤ 0.1	75 to 250
O=C(NCc1ccc(F)cc1)N1CC2=C(C1)CN(S(=O)(=O)c1cccc3cnccc13)C2 [Example 20-41, N-[(4-fluorophenyl)methyl]-5-(isoquinoline-5-sulfonyl)-1H,2H,3H,4H,5H,6H-pyrrolo[3,4-c]pyrrole-2-carboxamide]	75 to 250	1 to 40	75 to 250				75 to 250	1 to 40	75 to 250
Cc1nc(S(=O)(=O)N2CC3=C(CN(C(=O)C(C)n4cnc5ccccc54)C3)C2)cn1C (stereo not drawn) [Example 19-9, 2-(1H-Benzo[d]imidazol-1-yl)-1-(5-((1,2-dimethyl-1H-imidazol-4-yl)sulfonyl)-3,4,5,6-tetrahydropyrrolo[3,4-c]pyrrol-2(1H)-yl)propan-1-one]	75 to 250	0.1 to 1	75 to 250				75 to 250	1 to 40	75 to 250
O=C(NCc1ccc(F)cc1)N1CC2=C(C1)CN(S(=O)(=O)c1ccc(F)cc1)C2 [Example 20-20, 5-(4-Fluorobenzenesulfonyl)-N-[(4-fluorophenyl)methyl]-1H,2H,3H,4H,5H,6H-pyrrolo[3,4-c]pyrrole-2-carboxamide]	75 to 250	≤ 0.1	75 to 250				75 to 250	0.1 to 1	250 to 500
Cc1cc(CNC(=O)N2CC3=C(C2)CN(S(=O)(=O)c2cccnc2)C3)no1 [Example 21-38, N-[(5-methyl-1,2-oxazol-3-yl)methyl]-5-(pyridine-3-sulfonyl)-1H,2H,3H,4H,5H,6H-pyrrolo[3,4-c]pyrrole-2-carboxamide]	75 to 250	1 to 40	75 to 250				75 to 250	1 to 40	250 to 500
